Test results from ChEMBL document CHEMBL1148078, “Isolation of Spongosine and 2'-Deoxyspongosine from a Western Australian Sponge of the Order Hadromerida (Tethyidae)” (J Nat Prod, 1994).
The source made the active and inactive calls.

Assays:
Assay type in all cases: functional, organism-based
[1] = tested on: Pseudomonas aeruginosa; assay: Antimicrobial activity against Pseudomonas aeruginosa at 200 ug/disk by disk diffusion assay
[2] = tested on: Staphylococcus aureus; assay: Antimicrobial activity against Staphylococcus aureus at 200 ug/disk by disk diffusion assay
[3] = tested on: Candida albicans; assay: Antimicrobial activity against Candida albicans at 200 ug/disk by disk diffusion assay
[4] = tested on: Saccharomyces pastorianus; assay: Antimicrobial activity against Saccharomyces carlsbergensis at 200 ug/disk by disk diffusion assay
[5] = tested on: Escherichia coli; assay: Antimicrobial activity against Escherichia coli at 200 ug/disk by disk diffusion assay

Measured: Activity

COc1nc(N)c2ncn([C@H]3C[C@H](O)[C@@H](CO)O3)c2n1
inactive: all assays above

COc1nc(N)c2ncn([C@@H]3O[C@H](CO)[C@@H](O)[C@H]3O)c2n1
inactive: all assays above
